# “And” between values parts separate entries of the source, which are not always exact repeats. Equal entries are not always repeated. Where two headings read alike, the source gives them in different places.
# What was measured:
# [1] = test system: K. pneumoniae [ATCC13883]; experiment: Neutropenic Thigh Infection Model in Rat, K. pneumoniae; format: in vivo; conditions: for MEAN ± SD (Log10 CFU/g thigh) / Mean Log 10 CFU/thigh reduction (wrt 2 h PI control: 5.04 Log10CFU/g thigh) / Log10 CFU/g thigh: i.v., 1 h infusion; for Log10 CFU/g thigh: individual animals, 10 hr post infection
# [2] = Stability of IV formulation at room temperature; format: physicochemical; conditions: 10% L-ascorbic acid formulation
# [3] = test system: P. aeruginosa [ATCC27853]; experiment: Neutropenic Lung Infection Model in Rat; format: in vivo; conditions: for MEAN ± SD (Log10 CFU/g Lung) / Mean Log 10 CFU/g lung reduction (wrt 4 h PI control: 6.52 Log10CFU/g lung) / Log10 CFU/g Lung: i.v., 1 h infusion; for Log10 CFU/g Lung: individual animals, 24 h post infection
# Procedure: Animals were placed into an induction chamber and anaesthesia was induced by exposing the animals to 3-5% Isoflurane in an oxygen flow set at approximately (˜) 1 liter per minute (LPM). […] A gentle mixing of inoculum between two animals was followed for uniform distribution.
# Meropenem was formulated in saline.
# Entire Lung was aseptically isolated, weighed and placed into 1 mL of sterile CSDB broth, and homogenized (Omni Tip (220 V hand held)). Serial ten-fold dilutions of the lungs homogenates were prepared in sterile CSD broth and 0.05 mL of four dilutions for each tissue was plated onto CSDA agar plates. Bacterial colonies were enumerated following overnight incubation at 37° C. Bacterial densities were estimated as Log10 CFU/g lung. The Mean±SD Log10 CFU/g lung was estimated in each group.
# [4] = biological target: T1, hERG potassium channel (Homo sapiens, UniProt Q12809); experiment: hERG inhibition assay, QPatch HTX automated electrophysiology; format: cell-based; conditions: CHO cell line expressing hERG; whole-cell patch clamp, room temperature
# T1 construct: Chinese Hamster Ovary cell line stably expressing the full-length hERG potassium channel; expressed in transfected cells
# Procedure: The compounds were tested for inhibition of the human ether a go-go related gene (hERG) K+ channel using QPatch HTX automated electrophysiology.
# Compounds of Formula I were solubilised to 100 mM in DMSO before dilution in HBPS to 300 μM.
# Electrophysiological recordings were made from a Chinese Hamster Ovary cell line stably expressing the full-length hERG potassium channel. Single cell ionic currents were measured in whole-cell patch clamp configuration at room temperature (21-23° C.) using the QPatch HTX platform (Sophion). Intracellular solution contained (mM): 120 KF, 20 KCl, 10 EGTA, 10 HEPES and was buffered to pH 7.3. […] Cells were clamped at a holding potential of −80 mV. Cells were stepped to +20 mV for 2 s then −40 mV for 3 s before returning to the holding potential. This sweep was repeated 10 times at 10 s intervals. hERG currents were measured from the tail step and referenced to the holding current. Compounds were then incubated for 2 minutes prior to a second measurement of ion channel current using an identical pulse train.
# [5] = biological target: E. coli DNA gyrase (Escherichia coli, UniProt P0AES4+P0AES6); experiment: biochemical
# [6] = test system: K. pneumoniae clinical strains; experiment: Susceptibility (MIC50 and MIC90 determination) studies, clinical strains; format: cell-based; conditions: CLSI
# [7] = IV Formulation solubility; format: physicochemical; conditions: 10% L-ascorbic acid in MilliQ water, 37 °C, pH 2.8, aqueous with cosolvent or surfactant or cyclodextrin, thermodynamic from solid, 1N NaOH for pH adjustment, read-out: Solubility in 10% L-ascorbic acid in fresh MilliQ water(v/v), Final pH~2.8
# Procedure: Procedure: Weighed appropriate amount of the Compound 2 to be tested and dissolved in 1 ml of the 10% ascorbic acid solution. (Vortex for a few seconds if the compound doesn't dissolve instantly). Sonicated the compound solution at 37° C. for 5 minutes using a bath sonicator to obtain a visually clear solution. […]
# [8] = biological target: E. coli topoisomerase IV (Escherichia coli, UniProt P0AFI2+P20083); experiment: biochemical
# [9] = test system: clinical strains of five Gram-negative bacterial species; experiment: Antibacterial susceptibility studies, overall statement; format: cell-based; conditions: range over 5 Gram-negative species
# Excerpt: The standard drugs ciprofloxacin and meropenem were used as positive controls in the study.
# [10] = Klebsiella pneumoniae, Kpn clinical strains
# Chain of E. coli topoisomerase IV (P20083 whole entry): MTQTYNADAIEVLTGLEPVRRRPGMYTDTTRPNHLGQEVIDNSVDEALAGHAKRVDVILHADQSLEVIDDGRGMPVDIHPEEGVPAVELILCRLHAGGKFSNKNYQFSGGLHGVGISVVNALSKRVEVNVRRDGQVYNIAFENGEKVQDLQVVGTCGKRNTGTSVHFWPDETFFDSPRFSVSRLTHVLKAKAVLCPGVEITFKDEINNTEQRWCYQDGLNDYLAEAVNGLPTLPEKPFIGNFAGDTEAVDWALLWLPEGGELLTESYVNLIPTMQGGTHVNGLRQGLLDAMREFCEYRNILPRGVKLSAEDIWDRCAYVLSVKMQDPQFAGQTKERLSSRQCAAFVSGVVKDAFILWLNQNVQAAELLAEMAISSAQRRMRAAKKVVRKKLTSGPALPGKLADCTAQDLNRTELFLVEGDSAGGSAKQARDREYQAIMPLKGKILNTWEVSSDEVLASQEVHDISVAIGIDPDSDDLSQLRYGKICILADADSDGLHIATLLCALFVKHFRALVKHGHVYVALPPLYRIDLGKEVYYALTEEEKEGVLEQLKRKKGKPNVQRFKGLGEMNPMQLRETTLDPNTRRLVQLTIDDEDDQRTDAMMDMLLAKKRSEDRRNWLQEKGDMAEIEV
# Chain of E. coli topoisomerase IV (P0AFI2 whole entry): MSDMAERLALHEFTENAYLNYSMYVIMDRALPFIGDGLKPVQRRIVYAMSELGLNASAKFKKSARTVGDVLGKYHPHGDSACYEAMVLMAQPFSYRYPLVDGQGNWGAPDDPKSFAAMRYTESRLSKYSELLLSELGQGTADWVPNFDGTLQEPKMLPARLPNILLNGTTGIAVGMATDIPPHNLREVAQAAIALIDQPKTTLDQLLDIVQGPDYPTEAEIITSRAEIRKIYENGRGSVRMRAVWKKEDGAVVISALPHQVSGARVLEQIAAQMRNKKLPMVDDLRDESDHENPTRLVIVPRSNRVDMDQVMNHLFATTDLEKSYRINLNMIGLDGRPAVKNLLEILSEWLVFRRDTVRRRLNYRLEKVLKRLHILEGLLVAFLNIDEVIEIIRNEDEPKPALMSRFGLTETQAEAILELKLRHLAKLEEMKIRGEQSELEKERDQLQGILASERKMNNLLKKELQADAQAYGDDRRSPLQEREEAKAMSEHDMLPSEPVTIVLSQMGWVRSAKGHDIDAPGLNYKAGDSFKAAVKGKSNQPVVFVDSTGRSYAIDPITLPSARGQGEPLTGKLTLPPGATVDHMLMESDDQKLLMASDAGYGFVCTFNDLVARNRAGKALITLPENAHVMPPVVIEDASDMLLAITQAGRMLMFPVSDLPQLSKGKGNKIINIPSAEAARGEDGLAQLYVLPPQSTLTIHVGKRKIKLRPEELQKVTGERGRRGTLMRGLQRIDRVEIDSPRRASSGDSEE
# Chain of E. coli DNA gyrase (P0AES4 whole entry, one chain of several): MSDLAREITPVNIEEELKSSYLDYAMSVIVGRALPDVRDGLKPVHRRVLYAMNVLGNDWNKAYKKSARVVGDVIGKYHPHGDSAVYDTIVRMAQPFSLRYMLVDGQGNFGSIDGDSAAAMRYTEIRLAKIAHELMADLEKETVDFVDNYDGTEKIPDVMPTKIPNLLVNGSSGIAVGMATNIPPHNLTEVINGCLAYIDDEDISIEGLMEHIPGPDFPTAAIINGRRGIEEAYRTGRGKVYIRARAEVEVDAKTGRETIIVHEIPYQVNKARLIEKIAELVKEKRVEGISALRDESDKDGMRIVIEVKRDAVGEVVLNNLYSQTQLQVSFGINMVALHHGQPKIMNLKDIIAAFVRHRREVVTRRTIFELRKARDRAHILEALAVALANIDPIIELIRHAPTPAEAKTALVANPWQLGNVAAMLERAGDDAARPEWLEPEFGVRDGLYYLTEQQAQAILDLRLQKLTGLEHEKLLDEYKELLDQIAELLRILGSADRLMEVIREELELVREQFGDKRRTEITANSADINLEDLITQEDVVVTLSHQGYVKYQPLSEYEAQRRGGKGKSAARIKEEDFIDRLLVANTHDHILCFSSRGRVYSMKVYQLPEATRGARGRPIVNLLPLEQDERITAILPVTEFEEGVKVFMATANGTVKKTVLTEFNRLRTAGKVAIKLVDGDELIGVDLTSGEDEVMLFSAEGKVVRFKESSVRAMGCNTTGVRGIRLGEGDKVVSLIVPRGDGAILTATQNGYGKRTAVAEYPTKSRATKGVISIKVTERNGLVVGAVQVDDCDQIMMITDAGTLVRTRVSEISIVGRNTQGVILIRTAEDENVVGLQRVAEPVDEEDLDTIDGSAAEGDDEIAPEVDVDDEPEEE
# T1 sequence (Q12809 whole entry): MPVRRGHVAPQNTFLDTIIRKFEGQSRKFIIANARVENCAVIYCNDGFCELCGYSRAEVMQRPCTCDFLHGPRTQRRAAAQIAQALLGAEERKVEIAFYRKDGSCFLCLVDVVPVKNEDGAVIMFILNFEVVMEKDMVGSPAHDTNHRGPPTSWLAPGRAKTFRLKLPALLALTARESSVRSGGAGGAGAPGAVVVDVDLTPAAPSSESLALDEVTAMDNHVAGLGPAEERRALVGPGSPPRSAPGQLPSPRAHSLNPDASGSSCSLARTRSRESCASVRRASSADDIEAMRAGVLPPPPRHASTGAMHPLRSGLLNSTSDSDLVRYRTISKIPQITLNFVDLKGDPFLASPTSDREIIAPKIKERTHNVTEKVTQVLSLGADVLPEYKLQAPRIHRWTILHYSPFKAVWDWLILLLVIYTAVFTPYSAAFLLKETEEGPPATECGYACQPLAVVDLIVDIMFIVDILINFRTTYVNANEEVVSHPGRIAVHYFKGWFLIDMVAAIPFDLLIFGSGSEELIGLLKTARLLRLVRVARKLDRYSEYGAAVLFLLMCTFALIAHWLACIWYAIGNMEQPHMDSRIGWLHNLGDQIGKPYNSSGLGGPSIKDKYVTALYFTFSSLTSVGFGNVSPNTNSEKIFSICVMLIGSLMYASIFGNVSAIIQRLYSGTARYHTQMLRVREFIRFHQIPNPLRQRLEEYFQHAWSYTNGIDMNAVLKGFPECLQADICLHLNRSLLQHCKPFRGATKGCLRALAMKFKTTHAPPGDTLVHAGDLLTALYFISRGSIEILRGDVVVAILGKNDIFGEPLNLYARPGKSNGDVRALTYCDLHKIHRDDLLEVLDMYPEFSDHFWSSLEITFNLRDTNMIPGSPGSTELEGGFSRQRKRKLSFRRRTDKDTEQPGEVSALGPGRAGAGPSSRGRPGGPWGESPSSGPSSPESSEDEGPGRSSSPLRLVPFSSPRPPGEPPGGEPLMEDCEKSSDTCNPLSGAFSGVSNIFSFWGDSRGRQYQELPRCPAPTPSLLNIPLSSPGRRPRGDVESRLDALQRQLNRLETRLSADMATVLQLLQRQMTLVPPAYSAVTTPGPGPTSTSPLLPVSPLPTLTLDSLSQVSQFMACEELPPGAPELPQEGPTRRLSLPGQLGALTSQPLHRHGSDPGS
smiles,measurement,setting,value
"Cn1c(=O)ccc2ccc(F)c(OCCNC[C@H]3CN(c4cnc5c(n4)NC(=O)CO5)C(=O)O3)c21 [Compound 2, (S)-6-(5-(((2-((7-fluoro-1-methyl-2-oxo-1,2-dihydroquinolin-8-yl)oxy)ethyl)amino)methyl)-2-oxooxazolidin-3-yl)-2H-pyrazino[2,3-b][1,4]oxazin-3(4H)-one]",MEAN ± SD (Log10 CFU/g thigh),[1]; 3 mg/kg,3.91 ± 0.04 Log10 CFU/g thigh
same,Mean Log 10 CFU/thigh reduction (wrt 2 h PI control: 5.04 Log10CFU/g thigh),[1]; 3 mg/kg,1.13 Log 10 CFU/thigh
same,Log10 CFU/g thigh,[1]; 3 mg/kg,3.95 Log10 CFU/g thigh and 3.87 Log10 CFU/g thigh and 3.91 Log10 CFU/g thigh
same,MEAN ± SD (Log10 CFU/g thigh),[1]; 10 mg/kg,3.61 ± 0.31 Log10 CFU/g thigh
same,Mean Log 10 CFU/thigh reduction (wrt 2 h PI control: 5.04 Log10CFU/g thigh),[1]; 10 mg/kg,1.43 Log 10 CFU/thigh
same,Log10 CFU/g thigh,[1]; 10 mg/kg,3.74 Log10 CFU/g thigh and 3.26 Log10 CFU/g thigh and 3.84 Log10 CFU/g thigh
same,efficacy with respect to 2 h Post Infection (PI) control (in words),"[1]; 3, 10 and 30 mg/kg, rat thigh K. pneumoniae",significant dose dependent bactericidal efficacy
same,IV formulation stable at room temperature,[2],more than 24 hours
same,MEAN ± SD (Log10 CFU/g Lung),[3]; 3 mg/kg,8.09 ± 0.14 Log10 CFU/g Lung
same,Mean Log 10 CFU/g lung reduction (wrt 4 h PI control: 6.52 Log10CFU/g lung),[3]; 3 mg/kg,−1.57 Log 10 CFU/g lung
same,Log10 CFU/g Lung,[3]; 3 mg/kg,7.99 Log10 CFU/g Lung and 8.02 Log10 CFU/g Lung and 8.26 Log10 CFU/g Lung
same,MEAN ± SD (Log10 CFU/g Lung),[3]; 10 mg/kg,6.93 ± 0.44 Log10 CFU/g Lung
same,Mean Log 10 CFU/g lung reduction (wrt 4 h PI control: 6.52 Log10CFU/g lung),[3]; 10 mg/kg,−0.41 Log 10 CFU/g lung
same,Log10 CFU/g Lung,[3]; 10 mg/kg,7.34 Log10 CFU/g Lung and 6.98 Log10 CFU/g Lung and 6.46 Log10 CFU/g Lung
same,efficacy with respect to early infection control (in words),[3]; 30 mg/kg and 100 mg/kg doses,significant efficacy
same,MEAN ± SD (Log10 CFU/g Lung),[3]; 30 mg/kg,5.35 ± 0.25 Log10 CFU/g Lung
same,Mean Log 10 CFU/g lung reduction (wrt 4 h PI control: 6.52 Log10CFU/g lung),[3]; 30 mg/kg,1.17 Log 10 CFU/g lung
same,Log10 CFU/g Lung,[3]; 30 mg/kg,5.30 Log10 CFU/g Lung and 5.63 Log10 CFU/g Lung and 5.14 Log10 CFU/g Lung
same,MEAN ± SD (Log10 CFU/g Lung),[3]; 100 mg/kg,3.1 ± 0.12 Log10 CFU/g Lung
same,Mean Log 10 CFU/g lung reduction (wrt 4 h PI control: 6.52 Log10CFU/g lung),[3]; 100 mg/kg,3.42 Log 10 CFU/g lung
same,Log10 CFU/g Lung,[3]; 100 mg/kg,3.12 Log10 CFU/g Lung and 3.20 Log10 CFU/g Lung and 2.98 Log10 CFU/g Lung
same,IC50,[4],124000 nM
same,IC50,"[5]; gel based supercoiling assay, read-out: E. coli DNA Gyrase IC50",12 nM
same,IC50,"[5]; unit inferred, read-out: IC50 E. coli DNA Gyrase",≤ 50 nM
same,MIC50,[6]; [10],0.125 µg/mL
same,MIC90,[6]; [10],0.5 µg/mL
same,Minimum (MIC),"[6]; Kpn clinical strains, MIC50/MIC90 in μg/ml",0.06 µg/mL
same,MIC ATCC13883,"[6]; Kpn reference strain ATCC13883, MIC50/MIC90 in μg/ml",0.06 µg/mL
same,solubility at 5 min,[7],15 mg/mL
same,IC50,"[8]; gel based decatenation assay, read-out: E. coli Topo IV IC50",45 nM
same,IC50,"[8]; unit inferred, read-out: IC50 E. coli Topo IV",≤ 50 nM
same,MIC90,[9],0.25 to 1 µg/mL

# — patent publication US11401277B2, “Anti-bacterial heterocyclic compounds and their synthesis” (Bugworks Research, Inc., priority 2017, dated 2022)
